Experimental data reported in patent US11034725B2, “Compositions and methods for treating cardiovascular disease” (Genentech, Inc., priority 2016, dated 2021).
Read-outs that look alike come from different tables or passages of the source. Bridge positions count the residues as written; N and C are the ends. Square brackets hold non-standard residues; d marks the D form. Peptide text beside a SMILES is read from it. hArg = N=C(N)NCCCC[C@H](N)C(=O)O

Tests used:
PCSK9 [1] = target: T1, PCSK9 (Homo sapiens, UniProt Q8NBP7); assay: PCSK9/EGF(A) TR-FRET binding assay
His-EGF(A)-Fc = His-EGF(A)-Fc TR-FRET counterscreen
PCSK9Δhelix [2] = target: T2, PCSK9Δhelix (Homo sapiens, UniProt Q8NBP7); assay: PCSK9Δhelix/Ab20 TR-FRET binding assay
T2 construct: Human PCSK9 construct M1-Q692 with an engineered TEV site (residue deletion Y166, R167); made in house; host or cells: CHO

PCSK9Δhelix [3] = target: T2, PCSK9Δhelix; assay: Surface plasmon resonance biosensor-based affinity analysis (Example 4); assay type: binding; conditions: for Kd: Table 7, Target PCSK9Δhelix, SPR at 20° C., read-out: Kd
PCSK9Δhelix [4] = target: T2, PCSK9Δhelix; assay: SPR affinity measurements of peptide binding (Example 8); conditions: Table 10, binding to PCSK9Δhelix
Procedure: A Biacore™ T100 or Biacore™ 8K was adjusted to 20° C. The system was primed into assay buffer which consisted of 25 mM HEPES, pH 7.5, 0.15 M NaCl, 0.005% (v/v) Tween® 20, 0.2 mM tris(2-carboxyethyl)phosphine and optionally contained 0.1% (w/v) carboxymethylated dextran (average MW 10 kDa) and 0.2% (w/v) PEG (average MW 3450 Da) in order to reduce potential non-specific binding. Peptides were assayed by capturing fresh PCSK9 or PCSK9Δhelix after each binding regeneration cycle by exploiting a histidine tag and an NTA-sensor chip. The surface was charged with (His)8-tagged PCSK9 (approximately 800 RU captured). […] Compound 19 and Compound 20 were assayed in six serial two-fold dilutions from 100 nM to 3.1 nM. All peptides were analyzed in duplicate by serial injection (50 μL/min for 1 min) of peptide dilution from low to high concentration. The surface was then stripped of target by injecting 0.5 M EDTA, pH 8.0. This sequence was repeated for each peptide binding cycle and blank control cycles.
All SPR data was recorded in duplicate for five, or more serial dilutions, except for the two fusion peptides, which produced extremely low fitting error. Multicycle data (i.e. separate curves for each concentration) and single cycle data (i.e. single curve with serial injection of each concentration) were double referenced and fitted to an interaction model using BIAevaluation software. Peptide binding to PCSK9 produced deviations from a simple 1:1 binding interaction model that required application of a two-state model for determination of Kd while interactions with PCSK9Δhelix conformed well to simple 1:1 binding. Kinetic curvature was poorly defined for rapidly dissociating peptides and in these cases Kd was estimated from a steady-state dose response plot. Kd values were reported with associated standard error, a measure of confidence in that parameter value.

[5] = target: T3, PCSK9-R167A:R215A:R218A (PCSK9-AAA) (Homo sapiens, UniProt Q8NBP7, R167A/R215A/R218A); assay: FXIa cleavage assay of the P′ helix of PCSK9-AAA; assay type: biochemical; conditions: immunoblot with anti-N-terminal peptide antibody
T3 construct: made in house; host or cells: CHO (transient)
Procedure: The PCSK9-AAA mutant (2.6 μM) was incubated with 50 nM FXIa (Haematologic Technologies) in Tris buffer (50 mM Tris, 150 mM NaCl, 4 mM CaCl2, pH 8.0) at room temperature for the indicated time periods. […] After SDS-PAGE of the samples, proteins were transferred to a nitrocellulose membrane using iBlot (Invitrogen). Proteins were then probed with a polyclonal rabbit antibody (1:3000) raised against the PCSK9 N-terminal peptide (^153[…]^168 (SEQ ID NO: 5)), followed with HRP-conjugated donkey anti-rabbit antibody (1:5000, GE Healthcare) using iBind (Invitrogen). PCSK9 signals were detected by ECL (GE Healthcare) and visualized by autoradiography.
Proteins were then probed with a polyclonal rabbit antibody (1:3000) raised against the PCSK9 N-terminal peptide (^153[…]^168 (SEQ ID NO: 5)), followed with HRP-conjugated donkey anti-rabbit antibody (1:5000, GE Healthcare) using iBind (Invitrogen). PCSK9 signals were detected by ECL (GE Healthcare) and visualized by autoradiography.

PCSK9 [6] = target: T1, PCSK9; assay: PCSK9/LDLR-Fc TR-FRET assay (LDLR assay); assay type: binding; conditions: Table 11, LDLR-Fc, average ±S.D. of three experiments
Procedure: In black 1536-well assay plates (MaKO, Aurora® Microplates, Whitefish, Mont.), 40 nL of peptide in DMSO were preincubated with 2 μL His-tagged PCSK9 plus anti-His-allophycocyanin in assay buffer (50 mM Tris-HCl, pH 7.5, 150 mM NaCl, 2 mM CaCl2, 0.01% Tween®-20, 0.1% bovine gamma globulins, and protease inhibitor cocktail) for 30 min. Then 2 μL of Fc-tagged ligand and anti-Fc-europium in assay buffer were added and allowed to incubate for 2 h. The PCSK9 and ligand conditions for each assay are as follows: 10 nM C-terminal (His)8-tagged PCSK9 (“(His)8” disclosed as SEQ ID NO: 304) and 12 nM EGF(A)-Fc for the EGF(A) assay, 10 nM C-terminal (His)8-tagged PCSK9 (“(His)8” disclosed as SEQ ID NO: 304) and 2.5 nM LDLR-Fc for the LDLR assay, 1.25 nM C-terminal (His)8-tagged PCSK9Δhelix (“(His)8” disclosed as SEQ ID NO: 304) and 0.75 nM Ab20 for the Ab20 assay, and 2 nM His-EGF(A)-Fc alone for the counterscreen. In all assays, anti-His-allophycocyanin and anti-Fc-europium were used at 20 nM and 2 nM, respectively. Fluorescence was measured with excitation at 340 nm and emission at 671 nm and 618 nm. The TR-FRET ratio was calculated as fluorescence at 671 nm/fluorescence at 618 nm. The ratios were normalized to controls and plotted against peptide concentration to determine IC50 values (Screener Analyzer, Genedata, Basel, CH). The peptides were evaluated in three separate experiments per assay with 10-point titrations and n=2 per concentration. The values presented are the average ±S.D. of three independent experiments.

[7] = TR-FRET, Example 7, read-out: PCSK9/EGF(A) IC50
[8] = TR-FRET, Example 7, read-out: PCSK9Δhelix/Ab20 IC50

Molecule	IC50 (PCSK9 [1]; [7]) [µM]	IC50 (His-EGF(A)-Fc; counterscreen, Example 7) [µM]	IC50 (PCSK9Δhelix [2]; [8]) [µM]	Kd (PCSK9Δhelix [3]) [µM]	also measured
CC[C@H](C)[C@@H]1NC(=O)[C@H](CCCNC(=N)N)NC(=O)[C@H](CCCCN)NC(=O)[C@H](CC(C)C)NC(=O)[C@H](CC(N)=O)NC(=O)[C@H](Cc2c[nH]c3ccccc23)NC(=O)[C@@H](NC(=O)CCCCCNC(=O)[C@@H](NC(=O)[C@H](Cc2c[nH]c3ccccc23)NC(=O)[C@H](CC(=O)O)NC(=O)[C@H](CC(C)C)NC(=O)[C@H](Cc2ccc(O)cc2)NC(=O)[C@H](CCC(=O)O)NC(=O)[C@H](CCC(=O)O)NC(=O)[C@H](Cc2c[nH]c3ccccc23)NC(=O)[C@H](CO)NC(=O)[C@@H](NC(=O)[C@H](Cc2ccccc2)NC(=O)[C@@H](NC(=O)[C@@H](NC(C)=O)[C@@H](C)O)C(C)C)[C@@H](C)O)C(C)C)CSSC[C@@H](C(N)=O)NC(=O)CNC(=O)[C@H](CCC(N)=O)NC(=O)[C@H](CO)NC(=O)CNC1=O [Compound 17]	0.009	> 50	0.001	0.000123	inhibition in the PCSK9/EGF(A) binding assay (PCSK9 [1]): maintained potency; inhibition in the PCSK9Δhelix/Ab20 binding assay (PCSK9Δhelix [2]): maintained potency; Kd range for PCSK9Δhelix binding (PCSK9Δhelix [3]): sub-nanomolar range
CC[C@H](C)[C@@H]1NC(=O)[C@H](CCCNC(=N)N)NC(=O)[C@H](CCC(N)=O)NC(=O)[C@H](CC(C)C)NC(=O)[C@H](CC(N)=O)NC(=O)[C@H](Cc2c[nH]c3ccccc23)NC(=O)[C@@H]2CCCN2C(=O)[C@H]([C@@H](C)CC)NC(=O)[C@H](Cc2ccccc2)NC(=O)[C@@H](NC(C)=O)CSSC[C@@H](C(N)=O)NC(=O)[C@H](CC(C)C)NC(=O)[C@H](CC(C)C)NC(=O)CNC1=O [Compound 31] (Ac-CFIPWNLQRIGLLC-NH2; disulfide 1-14)	–	–	–	3.01	IC50 (PCSK9 [1]; TR-FRET, Table 8D, disulfide-cyclized extension peptides, read-out: PCSK9/EGF(A) IC50): > 50 µM; IC50 (His-EGF(A)-Fc; TR-FRET counterscreen, Table 8D, * = some inhibition at highest concentrations, not sufficient to fit an IC50): > 50 µM; IC50 (PCSK9Δhelix [2]; TR-FRET, Table 8D, disulfide-cyclized extension peptides, read-out: PCSK9Δhelix/Ab20 IC50): 2.4 µM
Ac-LMPWNLVRIGLLR-NH2 [Compound 50]	> 50	> 50	2.66	1.6	Kd (PCSK9Δhelix [4]): 0.47 µM; IC50 (PCSK9Δhelix [2]; Table 10, average ±S.D. of three experiments, read-out: Ab20 IC50): 3.6 ± 0.2 µM
EGFA-Fc: Fc fusion protein of the EGFA domain of LDLR	–	–	–	–	effect on FXIa-mediated cleavage of the P′ helix of PCSK9-AAA [5]: largely prevented cleavage
Ac-ALMPWNLVRIGLLR-NH2 [Compound 45]	> 50	> 50	2.02	8.2	–
CC[C@H](C)[C@H](NC(=O)[C@H](CCCCNC(=N)N)NC(=O)[C@@H](NC(=O)[C@H](CC(C)C)NC(=O)[C@H](CC(N)=O)NC(=O)[C@H](Cc1c[nH]c2ccccc12)NC(=O)CNC(=O)[C@@H]1CCCN1C(=O)[C@H](Cc1ccccc1)NC(=O)[C@H](CO)NC(=O)[C@H](CCC(=O)O)NC(C)=O)C(C)C)C(=O)NCC(=O)N[C@@H](CC(C)C)C(=O)N[C@@H](CC(C)C)C(=O)N[C@@H](CCCNC(=N)N)C(N)=O [Compound 227] (Ac-ESFPGWNLV[hArg]IGLLR-NH2)	–	–	–	–	IC50 (PCSK9 [6]): > 50 µM; IC50 (PCSK9 [1]; TR-FRET, Table 8E, additional compounds, read-out: PCSK9/EGF(A) IC50): 2.5 µM; lower inhibitory activity versus Compound 229 (PCSK9 [1]; Table 11): approximately 3 fold; IC50 (PCSK9 [1]; Table 11, average ±S.D. of three experiments, read-out: EGF(A) IC50): 23.2 ± 0.3 µM; IC50 (His-EGF(A)-Fc; TR-FRET counterscreen, Table 8E, additional compounds): ≥ 50 µM; IC50 (PCSK9Δhelix [2]; TR-FRET, Table 8E, additional compounds, read-out: PCSK9Δhelix/Ab20 IC50): 24 µM; IC50 (PCSK9Δhelix [2]; Table 11, average ±S.D. of three experiments, read-out: Ab20 IC50): 2.51 ± 0.11 µM
Ac-DLMPWNLVRIGLAR-NH2 [Compound 55]	> 50	> 50	9.7	2.8	–
